Values joined by “and” are separate entries in the source; they are usually repeats but may differ in a detail not shown here. Equal values may be shown once. Toxic doses and inconclusive results are not listed. How the source made its calls: active means survival T/C of 150% or more; inactive means T/C below 125% in these data.
System: P388 leukemia ip, CD2F1 mice, survival T/C
Assay: NCI In Vivo Anticancer Drug Screen. Data for tumor model P388 Leukemia (intraperitoneal) in CD2F1 (CDF1) mice
Conditions: endpoint: median survival time, higher = longer survival
Procedure, shortened: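 Mice carrying the transplanted tumor received test compound or vehicle. Survival was recorded in each group, and the value is the treated-group measurement divided by that of the vehicle-treated control group.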

[1] = dose: 12.5 mg/kg/injection, schedule: Q01DX009 (ip), vehicle: saline
[2] = dose: 25.0 mg/kg/injection, schedule: Q01DX009 (ip), vehicle: saline
[3] = dose: 50.0 mg/kg/injection, schedule: Q01DX009 (ip), vehicle: saline
[4] = dose: 100.0 mg/kg/injection, schedule: Q01DX009 (ip), vehicle: saline
[5] = dose: 50.0 mg/kg/injection, schedule: Q01DX009 (ip), vehicle: saline with Tween-80
[6] = dose: 50.0 mg/kg/injection, schedule: Q01DX005 (ip), vehicle: Klucel (hydroxypropylcellulose) (HPC)
[7] = dose: 100.0 mg/kg/injection, schedule: Q01DX005 (ip), vehicle: Klucel (hydroxypropylcellulose) (HPC)
[8] = dose: 200.0 mg/kg/injection, schedule: Q01DX005 (ip), vehicle: Klucel (hydroxypropylcellulose) (HPC)
[9] = dose: 100.0 mg/kg/injection, schedule: Q01DX009 (ip), vehicle: saline with Tween-80
[10] = dose: 200.0 mg/kg/injection, schedule: Q01DX009 (ip), vehicle: saline with Tween-80
[11] = dose: 60.0 mg/kg/injection, schedule: Q01DX005 (ip), vehicle: saline with Tween-80
[12] = dose: 120.0 mg/kg/injection, schedule: Q01DX005 (ip), vehicle: saline with Tween-80
[13] = dose: 100.0 mg/kg/injection, schedule: Q01DX001 (ip), vehicle: Klucel (hydroxypropylcellulose) (HPC)
[14] = dose: 200.0 mg/kg/injection, schedule: Q01DX001 (ip), vehicle: Klucel (hydroxypropylcellulose) (HPC)
[15] = dose: 50.0 mg/kg/injection, schedule: Q01DX009 (ip), vehicle: Klucel (hydroxypropylcellulose) (HPC)
[16] = dose: 100.0 mg/kg/injection, schedule: Q01DX009 (ip), vehicle: Klucel (hydroxypropylcellulose) (HPC)
[17] = dose: 25.0 mg/kg/injection, schedule: Q01DX005 (ip), vehicle: saline with Tween-80
[18] = dose: 50.0 mg/kg/injection, schedule: Q01DX005 (ip), vehicle: saline with Tween-80
[19] = dose: 100.0 mg/kg/injection, schedule: Q01DX005 (ip), vehicle: saline with Tween-80

Measured: T/C

c1ccc(CN2CCOC2)cc1
inactive: [1] 108 % of control | [2] 108 % of control | [3] 118 % of control and 124 % of control | [4] 123 % of control | dose: 200.0 mg/kg/injection, schedule: Q01DX009 (ip), vehicle: saline 116 % of control

CCOC(=O)/C=C(\C)Sc1cc(O)c2ccccc2c1O
inactive: dose: 12.5 mg/kg/injection, schedule: Q01DX009 (ip), vehicle: saline with Tween-80 119 % of control | [5] 108 % of control

O=c1[nH]c(=O)c2nc3cc(Cl)ccc3nc2[nH]1
inactive: [6] 116 % of control | [7] 104 % of control | [8] 99 % of control

CCCCCCCC#CC(=O)OC
inactive: [5] 95 % of control | [9] 101 % of control | [10] 101 % of control

NC(=S)c1cccc(/C=N/n2cnnc2)c1
inactive: dose: 100.0 mg/kg/injection, schedule: Q04DX003 (ip), vehicle: Klucel (hydroxypropylcellulose) (HPC) 97 % of control | dose: 200.0 mg/kg/injection, schedule: Q04DX003 (ip), vehicle: Klucel (hydroxypropylcellulose) (HPC) 93 % of control | dose: 400.0 mg/kg/injection, schedule: Q04DX003 (ip), vehicle: Klucel (hydroxypropylcellulose) (HPC) 90 % of control

O=[N+]([O-])c1ccc(Oc2ccccc2[N+](=O)[O-])nc1
inactive: dose: 6.25 mg/kg/injection, schedule: Q01DX009 (ip), vehicle: Klucel (hydroxypropylcellulose) (HPC) 106 % of control | dose: 12.5 mg/kg/injection, schedule: Q01DX009 (ip), vehicle: Klucel (hydroxypropylcellulose) (HPC) 105 % of control | dose: 25.0 mg/kg/injection, schedule: Q01DX009 (ip), vehicle: Klucel (hydroxypropylcellulose) (HPC) 103 % of control

Nc1ccc2c(SCCSc3c4ccccc4nc4cc(N)ccc34)c3ccccc3nc2c1
inactive: [11] 97 % of control | [12] 100 % of control

CCOP(=O)(O)OCC.CCOP(=O)(O)OCC.[O]=[V]
inactive: [13] 100 % of control | [14] 100 % of control

CC(=O)Nc1ccccc1CO
inactive: dose: 25.0 mg/kg/injection, schedule: Q01DX005 (ip), vehicle: Klucel (hydroxypropylcellulose) (HPC) 97 % of control | [6] 100 % of control | [7] 100 % of control | [8] 100 % of control

C=C1C(=O)OC2(C)CCC1CC1OC1(C)CC/C=C(\C)CCC2OC(C)=O (stereo unspecified)
inactive: dose: 37.5 mg/kg/injection, schedule: Q01DX001 (ip), vehicle: Klucel (hydroxypropylcellulose) (HPC) 94 % of control | dose: 75.0 mg/kg/injection, schedule: Q01DX001 (ip), vehicle: Klucel (hydroxypropylcellulose) (HPC) 92 % of control | dose: 150.0 mg/kg/injection, schedule: Q01DX001 (ip), vehicle: Klucel (hydroxypropylcellulose) (HPC) 91 % of control | dose: 300.0 mg/kg/injection, schedule: Q01DX001 (ip), vehicle: Klucel (hydroxypropylcellulose) (HPC) 88 % of control

O=C(O)c1ccc(C(=O)N(CCP(c2ccccc2)c2ccccc2)CCP(c2ccccc2)c2ccccc2)cc1C(=O)O
inactive: [15] 110 % of control | [16] 90 % of control | dose: 200.0 mg/kg/injection, schedule: Q01DX009 (ip), vehicle: Klucel (hydroxypropylcellulose) (HPC) 94 % of control

O=C(C1=CCCCC1)c1ccc(-c2ccccc2)cc1
inactive: [9] 100 % of control | [10] 100 % of control | dose: 400.0 mg/kg/injection, schedule: Q01DX009 (ip), vehicle: saline with Tween-80 100 % of control

COc1ccc(C(=O)CCS(=O)O)cc1
inactive: dose: 100.0 mg/kg/injection, schedule: Q04DX002 (ip), vehicle: saline 100 % of control | dose: 200.0 mg/kg/injection, schedule: Q04DX002 (ip), vehicle: saline 100 % of control | dose: 400.0 mg/kg/injection, schedule: Q04DX002 (ip), vehicle: saline 99 % of control

O=C(N/N=C/c1cc(Br)ccc1[O-])c1cccnc1.O=C(N/N=C/c1cc(Br)ccc1[O-])c1cccnc1.[Zn+2]
inactive: [13] 98 % of control | [14] 93 % of control | dose: 400.0 mg/kg/injection, schedule: Q01DX001 (ip), vehicle: Klucel (hydroxypropylcellulose) (HPC) 93 % of control

CC(=O)O[C@]1(C(C)=O)CC[C@H]2[C@@H]3C[C@H](C)C4=CC(=O)NCC[C@]4(C)[C@H]3CC[C@@]21C
inactive: dose: 50.0 mg/kg/injection, schedule: Q01DX005 (ip), vehicle: Klucel + Tween-80 98 % of control | dose: 100.0 mg/kg/injection, schedule: Q01DX005 (ip), vehicle: Klucel + Tween-80 93 % of control | dose: 200.0 mg/kg/injection, schedule: Q01DX005 (ip), vehicle: Klucel + Tween-80 94 % of control

CC(CNC(=O)CCBr)NC(=O)CCBr (stereo unspecified)
inactive: [1] 105 % of control | [2] 116 % of control | dose: 400.0 mg/kg/injection, schedule: Q01DX009 (ip), vehicle: suspension in saline 116 % of control

COc1ccc(C(c2c(O)c3ccccc3oc2=O)c2c(O)c3ccccc3oc2=O)c(OC)c1
inactive: [11] 106 % of control | [12] 98 % of control | dose: 240.0 mg/kg/injection, schedule: Q01DX005 (ip), vehicle: saline with Tween-80 94 % of control

COc1cc2cc3c(c(O)c2c(OC)c1OC)C(=O)CC(C)(C)C3
inactive: [17] 101 % of control | [18] 91 % of control

CC1(c2ccccc2)NN(S(=O)(=O)c2ccccc2)C(c2ccccc2)(c2ccccc2)/C1=N/Nc1ccccc1 (stereo unspecified)
inactive: dose: 50.0 mg/kg/injection, schedule: Q01DX001 (ip), vehicle: saline with Tween-80 93 % of control | dose: 100.0 mg/kg/injection, schedule: Q01DX001 (ip), vehicle: saline with Tween-80 88 % of control | dose: 200.0 mg/kg/injection, schedule: Q01DX001 (ip), vehicle: saline with Tween-80 89 % of control

O=C1c2cccc3cc([N+](=O)[O-])cc(c23)C(=O)N1CCCN(CCO)CCO
inactive: [17] 105 % of control | [18] 107 % of control | [19] 108 % of control and 121 % of control

COc1cccc2c1C(=O)c1c(O)c3c(c(O)c1C2=O)CC(O)(C(=O)COC(C)C)CC3O (stereo unspecified)
inactive: dose: 1.56 mg/kg/injection, schedule: Q01DX009 (ip), vehicle: other 100 % of control | dose: 3.13 mg/kg/injection, schedule: Q01DX009 (ip), vehicle: other 100 % of control | dose: 6.25 mg/kg/injection, schedule: Q01DX009 (ip), vehicle: other 100 % of control | dose: 12.5 mg/kg/injection, schedule: Q01DX009 (ip), vehicle: other 103 % of control | dose: 25.0 mg/kg/injection, schedule: Q01DX009 (ip), vehicle: other 103 % of control

CN=C1NC(=O)C(c2ccccc2)S1 (stereo unspecified)
inactive: [18] 99 % of control | [19] 99 % of control

COc1ccc(NC(CCN2CCN(CCC(=NC(C)(C)C)Nc3ccc(OC)cc3)CC2)=NC(C)(C)C)cc1
inactive: dose: 25.0 mg/kg/injection, schedule: Q01DX009 (ip), vehicle: saline with Tween-80 97 % of control | [2] 110 % of control | [6] 98 % of control | [15] 110 % of control | [5] 97 % of control | [3] 109 % of control | [7] 103 % of control | [16] 110 % of control | [9] 107 % of control | [4] 97 % of control | [10] 116 % of control

Cc1ccc(C=C2c3ccccc3C(=O)c3ccccc32)cc1
inactive: [6] 108 % of control | [7] 107 % of control | [8] 105 % of control

O=C(O)C1CC(O)CN1 (stereo unspecified)
inactive: dose: 50.0 mg/kg/injection, schedule: Q01DX005 (ip), vehicle: saline 106 % of control | dose: 100.0 mg/kg/injection, schedule: Q01DX005 (ip), vehicle: saline 106 % of control | dose: 200.0 mg/kg/injection, schedule: Q01DX005 (ip), vehicle: saline 110 % of control

COC(=O)CC1(C(=O)OC)c2sc(C(C)C)cc2N2CCCC21 (stereo unspecified)
inactive: dose: 10.0 mg/kg/injection, schedule: Q01DX009 (ip), vehicle: Klucel (hydroxypropylcellulose) (HPC) 97 % of control | dose: 20.0 mg/kg/injection, schedule: Q01DX009 (ip), vehicle: Klucel (hydroxypropylcellulose) (HPC) 93 % of control | dose: 40.0 mg/kg/injection, schedule: Q01DX009 (ip), vehicle: Klucel (hydroxypropylcellulose) (HPC) 93 % of control | dose: 80.0 mg/kg/injection, schedule: Q01DX009 (ip), vehicle: Klucel (hydroxypropylcellulose) (HPC) 91 % of control

COc1ccc(-c2cc(-c3ccc(OC)cc3)nc(-c3ccc(OC)cc3)c2)cc1
inactive: [6] 98 % of control | [7] 94 % of control | [8] 89 % of control

Source: PubChem BioAssay AID330 (DTP/NCI, 2004)
